Test results published in PubChem BioAssay (NCI).
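Briefly, cells in 96-well plates were exposed to five compound concentrations for 48 h, and endpoints were estimated by linear interpolation. The concentration for 50% growth inhibition is given as GI50. TGI: total growth inhibition.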

Columns and labels:
Test in all cases: NCI tumour cell line growth inhibition, 48 h
[1] = test system: LOX IMVI melanoma
[2] = test system: NCI-H23 lung
[3] = test system: IGROV1 ovarian
[4] = test system: OVCAR-5 ovarian
[5] = test system: NCI-H522 lung
[6] = test system: MALME-3M melanoma
[7] = test system: SK-MEL-2 melanoma
[8] = test system: DU-145 prostate
[9] = test system: OVCAR-3 ovarian
[10] = test system: KM12 colon
[11] = test system: HL-60(TB) leukemia
[12] = test system: OVCAR-4 ovarian
[13] = test system: COLO 205 colon
[14] = test system: NCI-H226 lung
[15] = test system: MOLT-4 leukemia
[16] = test system: RXF 393 renal
[17] = test system: MDA-MB-468 breast
[18] = test system: T-47D breast
[19] = test system: EKVX NSCLC
[20] = test system: CAKI-1 renal
[21] = test system: HCT-116 colon
[22] = test system: SW-620 colon
[23] = test system: UACC-62 melanoma
[24] = test system: NCI/ADR-RES ovarian
[25] = test system: K-562 leukemia
[26] = test system: HCT-15 colon
[27] = test system: UO-31 renal
[28] = test system: MDA-MB-231 breast
[29] = test system: SK-OV-3 ovarian
[30] = test system: SK-MEL-28 melanoma

Question: Which results are given for `O=C(Nc1ccc(OCc2ccc(F)cc2)cc1)Nc1ccc(Cl)c(C(F)(F)F)c1`?
Answer: GI50 [1]: 2.79 µM; TGI [1]: 9.64 µM; GI50 [2]: 2.38 µM; TGI [2]: 7.17 µM; GI50 [3]: 4.45 µM; TGI [3]: 16.2 µM; GI50 [4]: 3.24 µM; TGI [4]: 12.2 µM; GI50 [5]: 3.03 µM; TGI [5]: 12.3 µM; GI50 [6]: 2.07 µM; TGI [6]: 5.78 µM; GI50 [7]: 2.51 µM; TGI [7]: 7.15 µM; GI50 [8]: 3.96 µM; TGI [8]: 14.3 µM; GI50 [9]: 3.11 µM; TGI [9]: 10.6 µM; GI50 [10]: 2.86 µM; TGI [10]: 8.39 µM; GI50 [11]: 2.7 µM; TGI [11]: 7.29 µM; GI50 [12]: 2.89 µM; TGI [12]: 10.3 µM; GI50 [13]: 1.82 µM; TGI [13]: 3.37 µM; GI50 [14]: 2.46 µM; TGI [14]: 7.87 µM; GI50 [15]: 2.74 µM; TGI [15]: 13.8 µM; GI50 [16]: 2.57 µM; TGI [16]: 7.32 µM; GI50 [17]: 1.85 µM; TGI [17]: 4.71 µM; GI50 [18]: 2.46 µM; TGI [18]: 10.1 µM; GI50 [19]: 2.56 µM; TGI [19]: 8.33 µM; GI50 [20]: 2.56 µM; TGI [20]: 9.1 µM; GI50 [21]: 3.11 µM; TGI [21]: 10.4 µM; GI50 [22]: 3.31 µM; TGI [22]: 11.6 µM; GI50 [23]: 2.25 µM; TGI [23]: 7.75 µM; GI50 [24]: 2.4 µM; TGI [24]: 8.36 µM; GI50 [25]: 3.02 µM; TGI [25]: > 100 µM; GI50 [26]: 2.75 µM; TGI [26]: 11 µM; GI50 [27]: 2.37 µM; TGI [27]: 10.1 µM; GI50 [28]: 2.46 µM; TGI [28]: 5.84 µM; GI50 [29]: 2.28 µM; TGI [29]: 7.28 µM; GI50 [30]: 3.62 µM
